Source: publication PMC4627239, “Discovery of new small molecules inhibiting 67 kDa laminin receptor interaction with laminin and cancer cell invasion” (Oncotarget, 2015)

What was measured:
[1] = target: T1, 37 kDa laminin receptor precursor (37LRP/67LR) (Homo sapiens, UniProt P08865); experiment: ELISA-type inhibition of r37LRP binding to immobilized laminin (and YIGSR)
T1 construct: gene RPSA

[2] = target: T1, 37 kDa laminin receptor precursor (37LRP/67LR); experiment: ELISA-type inhibition of r37LRP binding to immobilized laminin at […]; format: biochemical

| IC50 [1] [µM] | SMILES | ELISA-type inhibition of r37LRP binding to immobilized laminin at 50 μM [2] |
| --- | --- | --- |
| 58.9 | COc1ccc(NCc2c(O)ccc3ccccc23)cc1 [compound 13, 1-((4-methoxyanilino)methyl)-2-naphthol] | – |
| – | Cc1ccc(NCc2c(O)ccc3ccccc23)cc1 [compound 50, 1-(4-toluidinomethyl)-2-naphthol] | NSC47923, NSC48478, NSC48861 and NSC48869 were active to the same extent as NSC47924, by in vitro binding assays |
| – | Oc1ccc2ccccc2c1CNc1ccc(Cl)cc1 [compound 52, 1-((4-chloroanilino)methyl)-2-naphthol] | NSC47923, NSC48478, NSC48861 and NSC48869 were active to the same extent as NSC47924, by in vitro binding assays |
| – | Oc1ccc2ccccc2c1CN(Cc1c(O)ccc2ccccc12)c1ccccc1 [compound 60, 1-((((2-hydroxy-1-naphthyl)methyl)anilino)methyl)-2-naphthol] | NSC47923, NSC48478, NSC48861 and NSC48869 were active to the same extent as NSC47924, by in vitro binding assays |
| – | Cc1ccc(N(Cc2c(O)ccc3ccccc23)Cc2c(O)ccc3ccccc23)cc1 [compound 61, 1-((((2-hydroxy-1-naphthyl)methyl)-4-methylanilino)methyl)-2-naphthol] | NSC47923, NSC48478, NSC48861 and NSC48869 were active to the same extent as NSC47924, by in vitro binding assays |
